# Patent publication US20090011051A1, “Methods, Compositions and Articles of Manufacture for HIF Modulating Compounds” (priority 2006, published 2009)
# Like-named read-outs stand apart in the source and are kept apart here.
# Experiments:
# rodents = details: H2S gas; cited from earlier work
# [1] = system: nematodes (Caenorhabditis elegans)
# Experimental: Nematodes of each strain in the fourth larval stage were moved onto fresh nematode growth plates. […] The nematodes were removed the next morning and the percent surviving nematodes was determined.
# humans [2] = details: chronic low-level exposure; cited from earlier work
# rats [3] = details: moderate levels, cited from earlier work
# rats [4] = details: cited from earlier work
# [5] = system: nematodes (Caenorhabditis elegans); test: Survival of C. elegans in H2S after pre-treatment with H2S gas (Example 2); type: in vivo; details: air plus 200 ppm H2S
# [6] = extreme levels (500 ppm), followed by recovery; cited from earlier work
# humans [7] = details: H2S gas; cited from earlier work
# humans [8] = details: cited from earlier work
SMILES,LD50 (rodents),"percent surviving nematodes ([1]; nematodes lacking the Egl-9 gene, air plus 100 ppm H2S, in contrast to wild type)","percent surviving nematodes ([1]; nematodes lacking the Hif-1 gene, fourth larval stage, air plus 20 ppm H2S, removed next morning)","percent surviving nematodes ([1]; wild type nematodes, fourth larval stage, air plus 20 ppm H2S, removed next morning)",effects of chronic exposure (humans [2]),discriminated avoidance responses (rats [3]; immediately after the end of the exposure),learning of baited radial arm maze task (rats [3]),"neuropathology and behavior of exposed rat pups (rats [4]; perinatal study, 80 ppm)","cerebellar Purkinje cell morphology (rats [4]; rats, 20 or 50 ppm, 7 hours per day from gestation through post-natal day 21)",percent surviving nematodes ([5]; Egl-9 mutant nematodes),percent surviving nematodes ([5]; wild type nematodes raised in air),effect of acute exposure (knockdown effect) [6],LD50 (humans [7]),"symptoms (humans [8]; 50 ppm, humans)","symptoms (humans [8]; 200 ppm, within two-three hours)","symptoms (humans [8]; 400 ppm, within one to two hours, may become widespread within three hours)","symptoms (humans [8]; 800 ppm, within 45 minutes)","symptoms (humans [8]; 800 ppm, within two hours)","lethality (humans [8]; around 1000 ppm, an organism, exposure for more than around 1-2 minutes)"
"S [Compound H2S, Hydrogen sulfide]",approximately 700 ppm,survived,unable to survive,able to survive,"persistent impairments in balance and memory, as well as altered sensory motor functions",inhibits discriminated avoidance responses,interferes with the ability of rats to learn a baited radial arm maze task,"no neuropathological effects or altered motor activity, passive avoidance, or acoustic startle response",longer dendritic branches with reduced aborization of cerebellar Purkinje cells,survived,unable to survive,sudden collapse and unconsciousness,approximately 700 ppm,–,–,–,–,–,–
"[C-]#[O+] [carbon monoxide, Carbon monoxide]",–,–,–,–,–,–,–,–,–,–,–,–,–,no symptoms,slight headache,frontal headache,"dizziness, nausea, and/or convulsions",insensible,can expire
